Results reported in patent publication US20070012632A1, “Synergistic composition and method for inhibiting growth of microorganisms” (priority 2005, published 2007).

Legend:
Format in all cases: cell-based
[1] = tested on: total bacteria in paper mill white water; experiment: Total bacterial counts in white water, mill using chemical pulp (Example 2); conditions: 30 minutes contact time; for Total bacterial counts: white water
Protocol: The furnish used on this paper machine is composed of about 60% bleached Kraft pulp, and 40% broke. White water was collected and total bacterial counts were determined in samples with and without the addition of DMH stabilized chlorine (1:1 molar ratio of DMH to “Cl2”), and/or PAA, after 30 minutes of contact time.

[2] = tested on: total bacteria in paper mill white water; experiment: Total bacterial counts in white water, mill using mechanical pulp (Example 1); conditions: 50 minutes contact time; for Total bacterial counts: white water
Protocol: The furnish used in this mill is composed of about 50% TMP, 25% bleached Kraft pulp, and 25% broke. White water was collected and total bacterial counts were determined in samples with and without the addition of DMH stabilized chlorine (1:1 molar ratio of DMH to “Cl2) and/or PAA, after 50 minutes of contact time.

[3] = tested on: total bacteria in paper mill white water; experiment: Total bacterial counts in white water, very closed mill using chemical pulp (Example 3); parameters: Total bacterial counts: unit not given here; conditions: 30 minutes contact time; for Total bacterial counts: white water
Protocol: The furnish used in this mill is composed of about 75% bleached Kraft pulp, and 25% broke. White water was collected and total bacterial counts were determined in samples with and without the addition of DMH stabilized chlorine (1:1 molar ratio of DMH to “Cl2”), and/or PAA, after 30 minutes of contact time.

CC(=O)OO [PAA, peracetic acid]
Total bacterial counts ([1]; PAA 2.5 ppm product): 5.8 × 10^6 | Total bacterial counts ([1]; PAA 5 ppm product): 1.1 × 10^6 | Total bacterial counts ([1]; PAA 10 ppm product): 5 × 10^4 | Concentration alone achieving >3-log reduction in bacterial counts ([1]; biocide alone): > 10 ppm | Total bacterial counts ([2]; PAA 25 ppm product): 4 × 10^6 | Total bacterial counts ([2]; PAA 50 ppm product): 3 × 10^5 | Total bacterial counts ([2]; PAA 100 ppm product): 3 × 10^3 | Concentration alone achieving >3-log reduction in bacterial counts ([2]; biocide alone): 100 ppm | Total bacterial counts ([3]; PAA 50 ppm product): 4.5 × 10^6 | Total bacterial counts ([3]; PAA 75 ppm product): 1.6 × 10^6 | Total bacterial counts ([3]; PAA 100 ppm product): 3 × 10^5 | Total bacterial counts ([3]; PAA 150 ppm product): 10^3 | Total bacterial counts ([3]; PAA 200 ppm product): <10^2 | Concentration alone achieving 2-log reduction in bacterial counts ([3]; biocide alone): 150 ppm
